O=C(O)C=CC(=O)O.OCCOCCN1CCN(C2=Nc3ccccc3Sc3ccccc32)CC1.OCCOCCN1CCN(C2=Nc3ccccc3Sc3ccccc32)CC1
solubility (mole fraction)
Conditions | in DMF | in acetone | in ethanol | in ethyl acetate | in isobutanol | in isopropanol | in methanol | in n-butanol | in water
283.15 K | 0.00309 | 0.000106 | 0.000191 | 8.13e-05 | 6.85e-05 | 0.000107 | 0.000388 | 0.000154 | 4.98e-05
288.15 K | 0.00369 | 0.000146 | 0.000244 | 9.87e-05 | 8.53e-05 | 0.000126 | 0.000453 | 0.000216 | 5.57e-05
293.15 K | 0.00419 | 0.000178 | 0.000325 | 0.000142 | 0.000119 | 0.000168 | 0.000545 | 0.000292 | 6.73e-05
298.15 K | 0.00491 | 0.000217 | 0.000408 | 0.000176 | 0.000162 | 0.000203 | 0.000696 | 0.000393 | 7.39e-05
303.15 K | 0.00598 | 0.000251 | 0.000502 | 0.000218 | 0.000204 | 0.000251 | 0.000879 | 0.000502 | 7.99e-05
308.15 K | 0.00684 | 0.000294 | 0.000636 | 0.000255 | 0.000251 | 0.000289 | 0.00121 | 0.000619 | 9.31e-05
313.15 K | 0.0084 | 0.000345 | 0.000838 | 0.000306 | 0.000307 | 0.00036 | 0.00163 | 0.000792 | 0.000108
318.15 K | 0.0102 | 0.000395 | 0.0011 | 0.000365 | 0.000395 | 0.000494 | 0.00202 | 0.000988 | 0.000131
323.15 K | 0.0123 | 0.000475 | 0.00135 | 0.000411 | 0.000481 | 0.000716 | 0.00245 | 0.00118 | 0.000162
